Results reported in patent US10533021B2, “Boron-containing small molecules” (Anacor Pharmaceuticals, Inc., priority 2007, dated 2020).
Where a name gives a salt, the structure may show the parent alone.

Legend:
E. coli = assay: Resistance of E. coli mutants selected against the compound (MIC); type: cell-based; conditions: E. coli mutants showing resistance to compound vs wildtype
Source text: In an exemplary assay, activity of a representative compound against the editing domain was confirmed. To identify the target of the novel boron-containing antibacterial compound (A1), mutants in E. coli showing resistance to compound (A1) were isolated. […] The leuS gene from the mutants was cloned onto a plasmid and their resistance was confirmed by MIC. The editing domain from these mutants were sequenced and the mutations were all located in the editing domain of this enzyme.
All MIC testing of bacteria followed the Clinical and Laboratory Standards Institute (CLSI) guidelines for antimicrobial testing of aerobic bacteria (Methods for Dilution Antimicrobial Susceptibility Tests for Bacteria That Grow Aerobically; Approved Standard—Seventh Edition) (M07-A7) and anaerobic bacteria (Methods for Antimicrobial Susceptibility Testing of Anaerobic Bacteria; Approved Standard—Seventh Edition) (M11-A7).
Compare the minimal inhibitory concentration (MIC) of a tolC Escherichia coli strain bearing a pUC derived plasmid with and without an leuS gene insert.
If the MIC of the strain bearing the extra copies of leuS is greater than 2-fold more than the control strain then pour LB agar plates with four times the concentration of the MIC of the compound.
Plate 1×10^10 E. coli on ten plates containing 4×MIC of the compound. […]

Nail plate penetration = type: in vitro ADME
[1] = Solubility (water and formulation solvents); type: physicochemical; conditions: water

SMILES	penetration of the nail plate (Nail plate penetration)	solubility [1]	also measured
NCC1OB(O)c2ccccc21 (centres unmarked) [A1, 3-Aminomethyl-3H-benzo[c][1,2]oxaborol-1-ol) hydrochloride]	–	–	fold increase in resistance of E. coli mutants over wildtype (E. coli): 32-256 fold
Cc1cc(C2CCCCC2)n(O)c(=O)c1 [ciclopirox, reference compound]	penetrates the nail plate poorly	–	–
OB1OCc2cc(F)ccc21 [compound 1]	–	> 100 µg/mL	–

Second part, led by results:

penetration of the nail plate (Nail plate penetration)	solubility [1]	SMILES	also measured
penetrates the nail plate poorly	–	Fc1ccc2c(c1)COB2c1ccccc1 [Compound 3]	–
–	> 100 µg/mL	OB1OCc2cc(Cl)ccc21 [compound 2]	–
